Drawing on US20100311729A1, “Substituted imidazopyridazines and pyrrolopyrimidines as lipid kinase inhibitors” (priority 2007, published 2010), this text covers melting point and IC50 for two compounds.

A word on the melting point: it is the temperature of the solid-liquid transition.

The target in one data set is T1, PI3K alfa (Homo sapiens, UniProt P42336).
T1 construct: for the p110-a subunit (with a deletion of the first 20 amino acids); His tag (C); made in house; host or cells: baculovirus; Tn5 (Trichoplusia ni) or TiniPro insect cells
Description: PI3 kinase assay (Kinase-Glo luminescence), PI3K alfa. In kind it is biochemical. The settings on record: Enzymatic Data; read-out: PI3K alfa IC50 [umol]. In short, it runs like this: (§1)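 Recombinant PI3K constructs (alfa 10 nM, delta 10 nM, gamma 150 nM) with 1 μM ATP and 10 μg/mL phosphatidylinositol in Tris pH 7.5, MgCl2, NaCl, CHAPS, DTT; 60 min (alfa, delta) or 120 min (gamma) at room temperature. ATP depletion read by Kinase-Glo luminescence; IC50 from 4-parameter logistic fit over 8 concentrations.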
(In general: Kinase-Glo reads ATP consumption through a luciferase reaction.)

The target in another data set is T2, PI3K gamma (Homo sapiens, UniProt P48736).
T2 construct: PI3Kγ BV-950 p110g(D144aa)-C-Term His Tag; His tag (C); made in house; host or cells: construct from the Roger Williams lab (MRC LMB) in pVL1393; baculovirus; Tn5 (Trichoplusia ni) or TiniPro insect cells
Put plainly: PI3 kinase assay (Kinase-Glo luminescence), PI3K gamma. The format is biochemical. Particulars: Enzymatic Data; read-out: PI3K gamma IC50 [umol]. The essentials:
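Kinase-Glo luminescence assay with 1 μM ATP and 10 μg/mL phosphatidylinositol (final), reaction started by ATP addition. IC50 from 4-parameter logistic fit of percent inhibition at 8 compound concentrations (usually 10 down to 0.003 […]).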

The next data set concerns the target T3, PI3K beta (Homo sapiens, UniProt P42338).
T3 construct: for the full-length p110-b subunit are generated and fused by overlapping PCR; His tag (C); made in house; host or cells: baculovirus; Tn5 (Trichoplusia ni) or TiniPro insect cells
Put plainly: PI3 kinase assay (Kinase-Glo luminescence), PI3K beta. In kind it is biochemical. The settings on record: Enzymatic Data; read-out: PI3K beta IC50 [umol]. In short, it runs like this: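 PI3Kβ (25 nM, BV-949) with 10 μg/mL phosphatidylinositol in Tris pH 7.5/MgCl2/NaCl/CHAPS/DTT buffer; reaction started with 1 μM ATP, 60 min at room temperature. ATP depletion read by Kinase-Glo luminescence; 8-point dilutions, IC50 by four-parameter logistic fit.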

A further data set deals with T4, PI3K delta (Homo sapiens, UniProt O00329).
T4 construct: for the full-length p110-d subunit are generated and fused by overlapping PCR; His tag (C); made in house; host or cells: baculovirus; Tn5 (Trichoplusia ni) or TiniPro insect cells
Description: PI3 kinase assay (Kinase-Glo luminescence), PI3K delta. The format is biochemical. The settings on record: Enzymatic Data; read-out: PI3K delta IC50 [umol]. The essentials:
as §1

Molecules are shown by their SMILES.

T3 sequence (P42338 with tags, fused parts or gaps limits assumed): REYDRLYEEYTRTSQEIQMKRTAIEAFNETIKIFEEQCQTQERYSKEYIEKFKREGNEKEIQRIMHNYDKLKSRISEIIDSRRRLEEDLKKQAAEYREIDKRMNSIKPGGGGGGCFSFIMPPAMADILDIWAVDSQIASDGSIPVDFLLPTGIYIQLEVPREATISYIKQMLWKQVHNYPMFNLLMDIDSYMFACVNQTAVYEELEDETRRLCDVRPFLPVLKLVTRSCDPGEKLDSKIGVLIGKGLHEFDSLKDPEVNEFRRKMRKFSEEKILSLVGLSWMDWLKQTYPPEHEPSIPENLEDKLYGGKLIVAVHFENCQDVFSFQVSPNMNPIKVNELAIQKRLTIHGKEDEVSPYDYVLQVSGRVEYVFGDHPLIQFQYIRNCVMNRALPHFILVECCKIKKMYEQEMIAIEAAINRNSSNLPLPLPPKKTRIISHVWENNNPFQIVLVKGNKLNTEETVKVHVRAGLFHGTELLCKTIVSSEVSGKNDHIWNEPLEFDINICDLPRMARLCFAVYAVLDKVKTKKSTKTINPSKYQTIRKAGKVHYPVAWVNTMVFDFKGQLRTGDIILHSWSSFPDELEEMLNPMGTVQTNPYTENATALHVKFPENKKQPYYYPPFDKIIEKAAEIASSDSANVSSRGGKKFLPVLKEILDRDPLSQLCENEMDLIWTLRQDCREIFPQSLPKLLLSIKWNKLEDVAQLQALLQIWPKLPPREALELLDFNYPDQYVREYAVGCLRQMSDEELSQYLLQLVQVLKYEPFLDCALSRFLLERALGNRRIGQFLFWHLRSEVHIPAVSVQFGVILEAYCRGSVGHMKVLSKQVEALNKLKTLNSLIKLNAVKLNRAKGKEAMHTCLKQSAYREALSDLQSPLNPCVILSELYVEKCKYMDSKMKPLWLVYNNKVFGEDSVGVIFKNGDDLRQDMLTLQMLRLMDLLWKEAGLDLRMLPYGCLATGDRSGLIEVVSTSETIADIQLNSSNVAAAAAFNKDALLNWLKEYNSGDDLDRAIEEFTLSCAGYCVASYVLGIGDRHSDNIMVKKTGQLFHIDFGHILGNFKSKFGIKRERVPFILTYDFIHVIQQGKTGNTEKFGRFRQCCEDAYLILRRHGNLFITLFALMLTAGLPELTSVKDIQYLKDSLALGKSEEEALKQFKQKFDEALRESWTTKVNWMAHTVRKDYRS
T2 sequence (P48736 144-1102 limits assumed): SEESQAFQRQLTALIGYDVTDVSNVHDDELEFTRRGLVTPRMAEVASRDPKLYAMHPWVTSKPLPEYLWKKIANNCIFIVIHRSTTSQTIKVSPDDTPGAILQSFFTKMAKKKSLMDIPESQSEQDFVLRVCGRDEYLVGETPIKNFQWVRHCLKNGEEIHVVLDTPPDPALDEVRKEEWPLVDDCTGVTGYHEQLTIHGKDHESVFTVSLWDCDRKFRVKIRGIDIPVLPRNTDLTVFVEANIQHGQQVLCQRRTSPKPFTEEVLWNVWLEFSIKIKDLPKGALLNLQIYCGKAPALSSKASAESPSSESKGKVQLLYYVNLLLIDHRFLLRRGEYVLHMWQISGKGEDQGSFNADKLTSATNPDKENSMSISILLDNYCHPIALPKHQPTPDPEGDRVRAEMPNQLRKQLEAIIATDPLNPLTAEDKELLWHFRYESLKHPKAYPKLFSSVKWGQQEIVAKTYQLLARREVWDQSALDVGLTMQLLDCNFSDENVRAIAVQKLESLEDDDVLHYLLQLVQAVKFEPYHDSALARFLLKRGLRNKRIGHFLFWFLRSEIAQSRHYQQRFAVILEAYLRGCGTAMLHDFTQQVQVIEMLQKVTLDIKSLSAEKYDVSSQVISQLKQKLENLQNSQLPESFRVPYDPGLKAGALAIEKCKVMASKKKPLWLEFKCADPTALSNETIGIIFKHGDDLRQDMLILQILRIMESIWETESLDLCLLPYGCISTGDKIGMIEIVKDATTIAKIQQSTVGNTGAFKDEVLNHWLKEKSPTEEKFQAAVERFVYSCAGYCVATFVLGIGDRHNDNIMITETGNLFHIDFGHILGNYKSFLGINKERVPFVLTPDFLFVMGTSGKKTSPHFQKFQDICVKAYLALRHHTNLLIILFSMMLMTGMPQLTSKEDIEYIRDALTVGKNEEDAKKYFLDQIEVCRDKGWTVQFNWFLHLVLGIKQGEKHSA
T4 sequence (O00329 with tags, fused parts or gaps limits assumed): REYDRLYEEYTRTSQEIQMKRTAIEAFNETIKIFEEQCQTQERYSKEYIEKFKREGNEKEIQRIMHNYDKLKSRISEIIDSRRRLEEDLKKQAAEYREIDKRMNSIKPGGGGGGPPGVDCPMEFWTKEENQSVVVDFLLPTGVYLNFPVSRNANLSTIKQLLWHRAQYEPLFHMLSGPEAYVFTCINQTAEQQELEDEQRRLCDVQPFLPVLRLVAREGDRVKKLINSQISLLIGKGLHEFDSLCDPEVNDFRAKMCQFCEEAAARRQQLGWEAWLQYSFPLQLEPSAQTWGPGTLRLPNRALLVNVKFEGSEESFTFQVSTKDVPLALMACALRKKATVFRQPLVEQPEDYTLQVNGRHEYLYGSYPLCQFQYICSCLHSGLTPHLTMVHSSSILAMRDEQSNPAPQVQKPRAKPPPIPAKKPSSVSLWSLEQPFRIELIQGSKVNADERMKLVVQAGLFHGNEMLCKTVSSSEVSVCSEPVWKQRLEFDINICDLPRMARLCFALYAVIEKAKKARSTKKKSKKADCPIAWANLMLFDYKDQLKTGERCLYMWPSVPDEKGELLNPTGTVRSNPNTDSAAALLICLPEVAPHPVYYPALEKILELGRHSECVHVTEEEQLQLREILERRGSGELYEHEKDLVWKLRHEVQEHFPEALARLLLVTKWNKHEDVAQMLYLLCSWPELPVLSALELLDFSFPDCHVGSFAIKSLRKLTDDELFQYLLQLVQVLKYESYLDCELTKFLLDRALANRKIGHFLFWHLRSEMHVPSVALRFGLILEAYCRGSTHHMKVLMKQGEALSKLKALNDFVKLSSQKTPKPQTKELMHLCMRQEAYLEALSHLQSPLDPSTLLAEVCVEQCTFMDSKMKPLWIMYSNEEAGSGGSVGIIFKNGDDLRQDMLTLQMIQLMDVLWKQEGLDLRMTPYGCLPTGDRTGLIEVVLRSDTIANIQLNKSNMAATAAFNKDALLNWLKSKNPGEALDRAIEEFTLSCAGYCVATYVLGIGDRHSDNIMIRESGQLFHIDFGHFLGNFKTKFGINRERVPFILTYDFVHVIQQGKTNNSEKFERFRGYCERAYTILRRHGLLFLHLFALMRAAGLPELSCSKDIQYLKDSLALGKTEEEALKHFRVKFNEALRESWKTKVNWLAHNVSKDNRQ
T1 sequence (P42336 with tags, fused parts or gaps limits assumed): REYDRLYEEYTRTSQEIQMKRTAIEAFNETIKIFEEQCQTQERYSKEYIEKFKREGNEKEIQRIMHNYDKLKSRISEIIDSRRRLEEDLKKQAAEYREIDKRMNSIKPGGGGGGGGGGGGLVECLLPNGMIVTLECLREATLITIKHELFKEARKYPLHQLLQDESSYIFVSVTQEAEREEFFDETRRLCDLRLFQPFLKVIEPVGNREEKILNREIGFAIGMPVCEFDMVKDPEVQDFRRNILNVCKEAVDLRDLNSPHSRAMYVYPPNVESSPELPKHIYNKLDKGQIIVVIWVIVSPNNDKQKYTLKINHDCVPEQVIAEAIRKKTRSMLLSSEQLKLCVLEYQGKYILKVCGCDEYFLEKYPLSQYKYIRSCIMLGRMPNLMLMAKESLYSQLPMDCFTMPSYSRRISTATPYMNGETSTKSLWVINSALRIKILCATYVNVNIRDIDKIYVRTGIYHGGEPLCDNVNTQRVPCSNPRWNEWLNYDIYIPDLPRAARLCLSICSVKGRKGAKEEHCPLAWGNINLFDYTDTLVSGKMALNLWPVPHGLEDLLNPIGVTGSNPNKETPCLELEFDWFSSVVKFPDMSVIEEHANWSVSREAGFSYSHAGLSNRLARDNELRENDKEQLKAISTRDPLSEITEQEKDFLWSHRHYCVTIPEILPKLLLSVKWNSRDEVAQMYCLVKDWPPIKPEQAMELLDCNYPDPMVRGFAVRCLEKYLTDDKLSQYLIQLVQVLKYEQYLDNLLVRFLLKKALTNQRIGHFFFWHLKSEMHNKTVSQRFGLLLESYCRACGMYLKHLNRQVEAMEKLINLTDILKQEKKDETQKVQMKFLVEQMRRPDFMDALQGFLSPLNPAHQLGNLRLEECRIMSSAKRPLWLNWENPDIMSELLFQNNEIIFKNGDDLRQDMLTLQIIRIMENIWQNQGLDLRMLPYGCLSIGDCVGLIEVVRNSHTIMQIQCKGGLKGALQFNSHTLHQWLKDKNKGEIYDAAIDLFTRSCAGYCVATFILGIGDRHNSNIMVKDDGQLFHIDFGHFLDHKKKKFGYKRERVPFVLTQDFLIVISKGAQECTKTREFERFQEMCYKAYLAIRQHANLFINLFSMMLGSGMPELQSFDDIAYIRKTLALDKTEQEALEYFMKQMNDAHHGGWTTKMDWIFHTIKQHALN

In the case of `COC(=O)NCC1(COc2ccc(-c3ccc4ncc(-c5cnc(N)c(C(F)(F)F)c5)n4n3)cc2)COC1` [Example 173, (3-{4-[3-(6-Amino-5-trifluoromethyl-pyridin-3-yl)-imidazo[1,2-b]Pyridazin-6-yl]-phenoxymethyl}-oxetan-3-ylmethyl)-carbamic acid methyl ester], the melting point is 179 to 181 °C. In addition, at PI3K alfa, the IC50 came to 39 nM. Also, at PI3K gamma, the IC50 stood at 516 nM. The IC50 on PI3K beta was 1020 nM. Also, on PI3K delta, the IC50 worked out at 113 nM.
The corresponding values for `Nc1ncc(-c2ccc3ncc(-c4ccc(CN5CCC(C(=O)N6CCCC6)CC5)cc4)n3n2)cc1C(F)(F)F` [Example 181] are 209 to 211 °C, 12 nM, 1080 nM, 180 nM and 16 nM.
